For orientation: IC50 means the concentration that inhibits the measured activity by half.

This assay deals with A549 human lung adenocarcinoma. Description: Antiproliferative MTT assay, A549 human lung adenocarcinoma cell line. The class given is cell-based. The note with it: A549 adherent cells, 72-h exposure, cytotoxicity. How it is done: Raspailamide A (I) and B (II) were analyzed as to their effect on the proliferation of A549 human lung adenocarcinoma and P388 murine leukemia cell lines. P388 cells were obtained from Dr. R. Camalier, National Cancer Institute, Bethesda, Md., and A549 cells were obtained from American Type Culture Collection, Rockville, Md.
All cell lines are maintained in Roswell Park Memorial Institute (RPMI) medium 1640 supplemented with 100 U/mL penicillin 100 μg/ml streptomycin, 60 μg/ml L-glutamine, 18 mM HEPES, 0.05 mg/mL gentamycin and 10% fetal bovine serum. Cell lines are cultured in plastic tissue culture flasks and kept in an incubator at 37° C. in humidified air containing 5% CO2. […]
A volume of 75 μl of warm growth media containing 5 mg/ml MTT is added to each well, cultures returned to the incubator, and left undisturbed for 3 hours. To spectrophotometrically quantitate formation of reduced formazan, plates are centrifuged (900×g, 5 minutes), culture fluids removed by aspiration, and 200 μl of acidified isopropanol (2 ml concentrated HCl/iter isopropanol) added per well. The absorbance of the resulting solutions is measured at 570 nm with a plate reader (Spectra II (Tecan Laboratories). […]
The two standard drug controls (indicated above) are included in each assay to monitor the drug sensitivity of each of the cell lines and IC50 values are determined for each drug-cell combination.

In the case of `C=C/C=C/C(C)=C/C(C)C1CC(OC)CC(CC2OC(CC(C)/C=C/C(C)=C/CC(CC(O)CNC(=O)C(=C)OC)OC(N)=O)C(C)(O)CC2C)O1` (centres unmarked) [Raspailamide (II), Raspailamide B], the IC50 is 0.018 ng/mL.

`C=C(OC)C(=O)NCC(O)CC(C/C=C(C)/C=C/C(C)CC1OC(CC2CC(OC)CC(C(C)/C=C(C)/C=C/C=C/C)O2)C(C)CC1(C)O)OC(N)=O` (centres unmarked) [Raspailamide A (I), Raspailamide A]: the IC50 came out at 0.046 ng/mL.
